# Biological target: γ-secretase (Homo sapiens (Human), UniProt P49768)
# Test: Cellular γ-secretase assay (inhibition of Aβ42 secretion, AlphaLisa)
# Format: cell-based
# Settings: human neuroglioma H4 cells overexpressing human APP695 Swedish double mutation, 24 hr compound incubation
# Method: Human neuroglioma H4 cells overexpressing human APP695 with the Swedish double mutation (K595N/M596L) were plated at 30,000 cells/well/100 μl in 96-well plates in IMDM media containing 10% FCS, 0.2 mg/l Hygromycin B and incubated at 37° C., 5% CO2.
# 3-4 hr post plating, compounds are a diluted in media and 50 μl is added as 1.5-fold concentrate to achieve the final concentration. Compound incubation is performed for 24 hr. Final doses typically range from 4 μM down to 0.001 μM in half-log steps resulting in a eight point dose response curve.
# Appropriate controls using vehicle only and reference compound were applied to this assay. The final concentration of Me2SO was 0.4%.
# After incubation at 37° C., 5% CO2, the supernatant was subjected to quantification of secreted Aβ42 by the means of an AlphaLisa assay kit (Human Amyloid beta 1-42 Kit: Cat #AL203C, Perkin Elmer). 20 μl of the cell culture supernatant was transferred to an assay plate. Then 10 μl of a mixture of the AlphaLisa coupled capture antibody and the biotinylated detection antibody was added and incubated for 3 hours at room temperature while softly shaking the assay plate. After a further addition of 20 μl of the Donor beads the assay plate was incubated for 30 min at room temperature and constant shaking without exposure to direct light. The assay plate was then read on a Paradigm AlphaLisa Reader using the build-in program with excitation at 680 nm and emission at 570 nm.
# The measured signals were then used to calculate IC50 values for inhibition of Aβ42 secretion by nonlinear regression fit analysis using XLfit 5.3 software (IDBS).
row,EC50 [nM],Structure (SMILES)
1,27,"Cc1cn(C23CC(Nc4nc5n(n4)CCCC[C@H]5c4ccc(F)c(F)c4)(C2)C3)cn1 [Example 14, (9S)-9-(3,4-difluorophenyl)-N-[3-(4-methylimidazol-1-yl)-1-bicyclo[1.1.1]pentanyl]-6,7,8,9-tetrahydro-5H-[1,2,4]triazolo[1,5-a]azepin-2-amine]"
2,44,"Cc1cn(C23CC(Nc4nc5n(n4)CCCC[C@@H]5c4ccc(F)c(F)c4)(C2)C3)cn1 [Example 13, (9R)-9-(3,4-difluorophenyl)-N-[3-(4-methylimidazol-1-yl)-1-bicyclo[1.1.1]pentanyl]-6,7,8,9-tetrahydro-5H-[1,2,4]triazolo[1,5-a]azepin-2-amine]"
3,25,"Cc1cn(C23CC(Nc4nc5n(n4)CCCC[C@@H]5c4ccc(F)cc4)(C2)C3)cn1 [Example 3, (9R)-9-(4-fluorophenyl)-N-[3-(4-methylimidazol-1-yl)-1-bicyclo[1.1.1]pentanyl]-6,7,8,9-tetrahydro-5H-[1,2,4]triazolo[1,5-a]azepin-2-amine]"
4,14,"Cc1cn(C23CC(Nc4nc5n(n4)CCCC[C@@H]5c4ccc(F)c(F)c4F)(C2)C3)cn1 [Example 19, (9R)-N-[3-(4-methylimidazol-1-yl)-1-bicyclo[1.1.1]pentanyl]-9-(2,3,4-trifluorophenyl)-6,7,8,9-tetrahydro-5H-[1,2,4]triazolo[1,5-a]azepin-2-amine]"
5,8,"Cc1cn(C23CC(Nc4nc5n(n4)CCCC[C@@H]5c4cc(F)cc(Cl)c4)(C2)C3)cn1 [Example 9, (9R)-9-(3-chloro-5-fluoro-phenyl)-N-[3-(4-methylimidazol-1-yl)-1-bicyclo[1.1.1]pentanyl]-6,7,8,9-tetrahydro-5H-[1,2,4]triazolo[1,5-a]azepin-2-amine]"
6,31,"Cc1cn(C23CC(Nc4nc5n(n4)CCCC[C@H]5c4ccc(F)cc4)(C2)C3)cn1 [Example 4, (9S)-9-(4-fluorophenyl)-N-[3-(4-methylimidazol-1-yl)-1-bicyclo[1.1.1]pentanyl]-6,7,8,9-tetrahydro-5H-[1,2,4]triazolo[1,5-a]azepin-2-amine]"
7,19,"Cc1cn(C23CC(Nc4nc5n(n4)CCCC[C@H]5c4ccccc4F)(C2)C3)cn1 [Example 16, (9S)-9-(2-fluorophenyl)-N-[3-(4-methylimidazol-1-yl)-1-bicyclo[1.1.1]pentanyl]-6,7,8,9-tetrahydro-5H-[1,2,4]triazolo[1,5-a]azepin-2-amine]"
8,56,"Cc1cn(C23CCC(Nc4nc5n(n4)CCCC[C@@H]5c4ccccc4F)(CC2)CC3)cn1 [Example 17, (9R)-9-(2-fluorophenyl)-N-[4-(4-methylimidazol-1-yl)-1-bicyclo[2.2.2]octanyl]-6,7,8,9-tetrahydro-5H-[1,2,4]triazolo[1,5-a]azepin-2-amine]"
9,62,"Cc1cn(C23CCC(Nc4nc5n(n4)CCCC[C@H]5c4ccccc4F)(CC2)CC3)cn1 [Example 18, (9S)-9-(2-fluorophenyl)-N-[4-(4-methylimidazol-1-yl)-1-bicyclo[2.2.2]octanyl]-6,7,8,9-tetrahydro-5H-[1,2,4]triazolo[1,5-a]azepin-2-amine]"
10,27,"Cc1cn(C23CCC(Nc4nc5n(n4)CCCC[C@H]5c4ccc(F)c(F)c4F)(CC2)CC3)cn1 [Example 22, (9S)-N-[4-(4-methylimidazol-1-yl)-1-bicyclo[2.2.2]octanyl]-9-(2,3,4-trifluorophenyl)-6,7,8,9-tetrahydro-5H-[1,2,4]triazolo[1,5-a]azepin-2-amine]"
11,49,"Cc1cn(C23CCC(Nc4nc5n(n4)CCCC[C@H]5c4ccc(F)c(F)c4)(CC2)CC3)cn1 [Example 12, (9S)-9-(3,4-difluorophenyl)-N-[4-(4-methylimidazol-1-yl)-1-bicyclo[2.2.2]octanyl]-6,7,8,9-tetrahydro-5H-[1,2,4]triazolo[1,5-a]azepin-2-amine]"
12,43,"Cc1cn(C23CCC(Nc4nc5n(n4)CCCC[C@@H]5c4ccc(F)c(F)c4F)(CC2)CC3)cn1 [Example 21, (9R)-N-[4-(4-methylimidazol-1-yl)-1-bicyclo[2.2.2]octanyl]-9-(2,3,4-trifluorophenyl)-6,7,8,9-tetrahydro-5H-[1,2,4]triazolo[1,5-a]azepin-2-amine]"
13,15,"Cc1cn(C23CC(Nc4nc5n(n4)CCCC[C@@H]5c4cccc(Cl)c4)(C2)C3)cn1 [Example 1, (9R)-9-(3-chlorophenyl)-N-[3-(4-methylimidazol-1-yl)-1-bicyclo[1.1.1]pentanyl]-6,7,8,9-tetrahydro-5H-[1,2,4]triazolo[1,5-a]azepin-2-amine]"
14,10,"Cc1cn(C23CC(Nc4nc5n(n4)CCCC[C@H]5c4ccc(F)c(F)c4F)(C2)C3)cn1 [Example 20, (9S)-N-[3-(4-methylimidazol-1-yl)-1-bicyclo[1.1.1]pentanyl]-9-(2,3,4-trifluorophenyl)-6,7,8,9-tetrahydro-5H-[1,2,4]triazolo[1,5-a]azepin-2-amine]"
15,15,"Cc1cn(C23CCC(Nc4nc5n(n4)CCCC[C@@H]5c4cc(F)cc(Cl)c4)(CC2)CC3)cn1 [Example 7, (9R)-9-(3-chloro-5-fluoro-phenyl)-N-[4-(4-methylimidazol-1-yl)-1-bicyclo[2.2.2]octanyl]-6,7,8,9-tetrahydro-5H-[1,2,4]triazolo[1,5-a]azepin-2-amine]"
16,16,"Cc1cn(C23CC(Nc4nc5n(n4)CCCC[C@H]5c4cccc(Cl)c4)(C2)C3)cn1 [Example 2, (9S)-9-(3-chlorophenyl)-N-[3-(4-methylimidazol-1-yl)-1-bicyclo[1.1.1]pentanyl]-6,7,8,9-tetrahydro-5H-[1,2,4]triazolo[1,5-a]azepin-2-amine]"
17,23,"Cc1cn(C23CC(Nc4nc5n(n4)CCCC[C@H]5c4ccc(Cl)cc4)(C2)C3)cn1 [Example 6, (9S)-9-(4-chlorophenyl)-N-[3-(4-methylimidazol-1-yl)-1-bicyclo[1.1.1]pentanyl]-6,7,8,9-tetrahydro-5H-[1,2,4]triazolo[1,5-a]azepin-2-amine]"
18,38,"Cc1cn(C23CC(Nc4nc5n(n4)CCCC[C@@H]5c4ccccc4F)(C2)C3)cn1 [Example 15, (9R)-9-(2-fluorophenyl)-N-[3-(4-methylimidazol-1-yl)-1-bicyclo[1.1.1]pentanyl]-6,7,8,9-tetrahydro-5H-[1,2,4]triazolo[1,5-a]azepin-2-amine]"
19,14,"Cc1cn(C23CC(Nc4nc5n(n4)CCCC[C@H]5c4cc(F)cc(Cl)c4)(C2)C3)cn1 [Example 10, (9S)-9-(3-chloro-5-fluoro-phenyl)-N-[3-(4-methylimidazol-1-yl)-1-bicyclo[1.1.1]pentanyl]-6,7,8,9-tetrahydro-5H-[1,2,4]triazolo[1,5-a]azepin-2-amine]"
20,14,"Cc1cn(C23CCC(Nc4nc5n(n4)CCCC[C@H]5c4cc(F)cc(Cl)c4)(CC2)CC3)cn1 [Example 8, (9S)-9-(3-chloro-5-fluoro-phenyl)-N-[4-(4-methylimidazol-1-yl)-1-bicyclo[2.2.2]octanyl]-6,7,8,9-tetrahydro-5H-[1,2,4]triazolo[1,5-a]azepin-2-amine]"
21,26,"Cc1cn(C23CC(Nc4nc5n(n4)CCCC[C@@H]5c4ccc(Cl)cc4)(C2)C3)cn1 [Example 5, (9R)-9-(4-chlorophenyl)-N-[3-(4-methylimidazol-1-yl)-1-bicyclo[1.1.1]pentanyl]-6,7,8,9-tetrahydro-5H-[1,2,4]triazolo[1,5-a]azepin-2-amine]"
22,39,"Cc1cn(C23CCC(Nc4nc5n(n4)CCCC[C@@H]5c4ccc(F)c(F)c4)(CC2)CC3)cn1 [Example 11, (9R)-9-(3,4-difluorophenyl)-N-[4-(4-methylimidazol-1-yl)-1-bicyclo[2.2.2]octanyl]-6,7,8,9-tetrahydro-5H-[1,2,4]triazolo[1,5-a]azepin-2-amine]"

# Source: patent US11440915B2, “Triazolo-azepine derivatives” (Hoffmann-La Roche Inc., priority 2017, dated 2022)
